Data reported in patent US12709731B2, “Method of producing biological material” (NTT, Inc., priority 2021, dated 2026).

Experiments:
Format in all cases: cell-based
Cyanidioschyzon merolae [1] = test: Test 1: color of microorganism-containing liquid after suspension culture with regulator; conditions: for contribution to a reduction of light-harvesting pigments: added to MA2 culture medium, 18 hours culture, judged from color in FIG. 3; for color of the microorganism-containing liquid after cultivation (FIG. 3): MA2 culture medium, light condition, 18 hours after addition
Procedure: Unicellular red algae were cultured in suspension under a light condition and a regulator was added thereto. An MA2 culture medium was used as a culture medium. Cyanidioschyzon merolae were used as unicellular red algae. Dimethyl 2-oxoglutarate was used as the regulator. Then, after the regulator was added, the culture was further continued for 18 hours.
The above-mentioned cultivation was carried out for each case where the final concentrations of dimethyl 2-oxoglutarate were adjusted to 10, 20, 40 and 80 mmmol/L (=mM). In addition, cultivation was also carried out in a similar manner except that the addition of dimethyl 2-oxoglutarate was omitted.
Thereafter, each of microorganism-containing liquids containing unicellular red algae and the culture medium was imaged.
In addition, cultivation was carried out in a similar manner except that 2-oxoglutaric acid was used instead of using dimethyl 2-oxoglutarate. Thereafter, each of dispersion microorganism-containing liquids containing unicellular red algae and the culture medium was imaged.
FIG. 3 is an image obtained by imaging the microorganism-containing liquids after cultivation. In FIG. 3, “2-OG” and “dimethyl 2-OG” represent 2-oxoglutaric acid and dimethyl 2-oxoglutarate, respectively.

Cyanidioschyzon merolae [2] = test: Test 3: amount of phycocyanin in microorganism-containing liquid after addition of regulator; conditions: final concentration 2 mmol/L; every culture time as in test 2 (0, 6, 24 hours); average of three independent tests; control increased
Procedure: Cultivation was carried out in a similar manner to that in the test 2 and the amounts of phycocyanin contained in the microorganism-containing liquids were determined in every culture time. FIG. 5 is a graph showing an example of the effect of the addition of a regulator on the amount of phycocyanin. […] Furthermore, “dimethyl 2-OG” indicates the results obtained for unicellular red algae cultured by adding dimethyl 2-oxoglutarate to the culture medium as a regulator.

Cyanidioschyzon merolae [3] = test: Test 2: amount of chlorophyll a in microorganism-containing liquid after addition of regulator; conditions: final concentration 2 mmol/L; immediately before, 6 hours and 24 hours after addition; average of three independent tests; control increased
Procedure: Unicellular red algae were cultured in suspension under a light condition and a regulator was added thereto. An MA2 culture medium was used as a culture medium. Cyanidioschyzon merolae were used as unicellular red algae. Dimethyl 2-oxoglutarate was used as the regulator. The regulator was added so that the final concentration of dimethyl 2-oxoglutarate was 2 mmol/L. After the regulator was added, the cultivation was further continued. Then, the amounts of chlorophyll a contained in the microorganism-containing liquids were determined immediately before the regulator was added, 6 hours after the regulator was added, and 24 hours after the regulator was added. In addition, in parallel with the cultivation, cultivation was carried out as described above in a similar manner except that no regulator was added. The amount of chlorophyll a contained in the microorganism-containing liquid was also determined in the same manner as described above. FIG. 4 is a graph showing an example of the effect of the addition of the regulator on the amounts of chlorophyll a. […] Furthermore, “dimethyl 2-OG” indicates the results obtained for unicellular red algae cultured by adding dimethyl 2-oxoglutarate to the culture medium as a regulator.

[4] = final concentrations 10, 20, 40 and 80 mmmol/L (=mM), compared with no regulator added

Row | SMILES | contribution to a reduction of light-harvesting pigments (Cyanidioschyzon merolae [1]) | color of the microorganism-containing liquid after cultivation (FIG. 3) (Cyanidioschyzon merolae [1]; [4]) | amount of phycocyanin contained in the microorganism-containing liquid (FIG. 5) (Cyanidioschyzon merolae [2]) | amount of chlorophyll a contained in the microorganism-containing liquid (FIG. 4) (Cyanidioschyzon merolae [3]) | color of the microorganism-containing liquid after cultivation (FIG. 3) (Cyanidioschyzon merolae [1]; final concentration 20 mmol/L or higher)
1 | O=C(O)CCC(=O)C(=O)O [2-oxoglutaric acid, 2-Oxoglutaric acid, reference compound] | little contributed | the same color as that in the case with no regulator added |  |  | 
2 | COC(=O)CCC(=O)C(=O)OC [dimethyl 2-oxoglutarate] | greatly contributes | lighter than those of the microorganism-containing liquids with no regulator added | decreased according to the culture time | decreased according to the culture time | substantially colorless
